Measured values reported in patent publication US20130217908A1, “STABILISATION OF RADIOPHARMACEUTICAL PRECURSORS” (GE HEALTHCARE LIMITED, priority 2010, published 2013).

How the values were obtained:
[1] = Storage stability of the precursor of formula II with or without a drying agent, degradation by 19F NMR; type: physicochemical
Procedure: To test the stability of the precursor of formula II when packed with a drying agent, a sample of the precursor was analysed by ^19F and ^1H measurements.
The following drying agents were used:
Molecular sieve: 0.4 nm, Merck, Art. 5708, beads about 2 mm, pore size 4A Silica: Kiselgel, Merck, product no. 1.01969.5000
The drying agents used in the tests are typical drying agents for removing water from solvents and desiccators. The drying agents were both dried at 120° C. for about 90 hours before use.
The storage conditions for the precursor together with a drying agent were tested by storing together in the bottom of a small sample glass (mixed together) placed on a shelf in the lab (i.e. at room temperature). Also some samples without drying agent were set up. The first analysis of the samples with solid product was performed after 3.5 months storage and a second analysis was carried out after 5 months storage.

[2] = Earlier stability testing of the compound of formula II at set storage temperatures; type: physicochemical
[3] = solid, stored in a small sample glass at room temperature
[4] = solid, stored in a small sample glass at room temperature, listed as precursor
[5] = stored in freezer, reference, no drying agent

With CCOC(=O)[C@]1(NC(=O)OC(C)(C)C)C[C@@H](OS(=O)(=O)C(F)(F)F)C1 [PRECURSOR, 1-(N-(t-butoxycarbonyl)amino)-3-[((trifluoromethyl)sulfonyl)oxy]-cyclobutane-1-carboxylic acid ethyl ester] the “19F NMR results, degradation (mole %) after 3.5 months” value [1, 3] was 30.7 mole %, the “19F NMR results, degradation (mole %) after 3.5 months” value [1, 4] was “about 30 mole %” and the “19F NMR results, degradation (mole %) after 5 months” value [1, 3] was 96.6 mole %. The “19F NMR results, degradation (mole %) after 5 months” value [1, 4] was “about 97 mole %”, the “19F NMR results, degradation (mole %) after 3.5 months” value [1, 5] was 0.7 mole % and the “19F NMR results, degradation (mole %) after 5 months” value [1, 5] was 0.6 mole %. The “hygroscopicity (observation)” value [2] was “hygroscopic”, the “period over which the compound is stable” value ([2]; stability testing at 25° C.) was ~1 month and the “stability at storage conditions” value ([2]; storage between −20° C. and −5° C.) was “acceptable stability”.
